From patent US20110112114A1, “INHIBITORS OF SERINE PROTEASES, PARTICULARLY HEPATITIS C VIRUS NS3 PROTEASE” (priority 1999, published 2011)

biological target: HCV NS3 serine protease (Hepatitis C virus genotype 1a, UniProt P27958); assay: biochemical; conditions: Ki from rate vs. [inhibitor] plots, Morrison tight binding competitive inhibition fit; with or without NS4A; 30 C, pH 7.8
Procedure: Peptides EDVVabuCSMSY (Abu designates—aminobutyric acid), […], […] and EDVV AbuC-p-nitroanilide was purchased from AnaSpec Inc. (San Jose, Calif.).
Cleavage reactions were quenched by the addition of an equal volume of a mixture of 10% TFA: acetonitrile (1:1) and activity was assessed on a reversed phase HPLC column (Rainin C18 Microsorb-MV, […], 4.6×250 mm; 0-50% acetonitrile, 0.1% TFA@3.33% min) using a Hewlett Packard 1050 instrument with auto-injection and diode array detection at 210 nm and 280 nm (where appropriate). Peptide elution fragments were collected and identified by mass spectrometry and N-terminal sequence analysis. Fragment identity and concentration was further verified by authentic, synthesized products. Initial rates of cleavage were determined at <20% substrate conversion and catalytic parameters were determined assuming Michaelis-Menten kinetics using the MultiFit program (Day Computing, Cambridge, Mass.).
Spectrophotometric assays were run in a 96-well microtiter plate at 30 C, using a SpectraMax 250 reader (Molecular Devices, Sunnyvale, Calif.) with kinetic capability. Cleavage of EDVV AbuC-p-nitroanilide (5A-pNA) substrate was performed with or without NS4A in the same buffer used for HPLC assays at 30 C, and pNA release was monitored at 405 nm. The extinction coefficient of p-nitroaniline is independent of pH at values of 5.5. and above [Tuppy, H., et al., Hoppe-Seyler's Z. Physiol. Chem., 329, pp. 278-288 (1962)]; Raybuck and Luong, unpublished observations).
Kinetic constants for the rapid equilibrium ordered bisubstrate reaction were determined from rate vs. [4A], [EDVV Abuc-pNa]data by non-linear least squares fitting to equation 1 [Morrison, J. F. Biochim. Biophys. Acta., 185, pp. 269-286 (1969)] as described in the text. Kii and Kis valkues for peptidyl inhibitors were determined from rate vs. [inhibitor], [substrate] data and fitting to the equation for mixed inhibition:
rate=Vmax[S]/{Km(1+[I]/Kis0+[S](1+[I]/Kii)}
The commercial program KinetAsyst (State College, Pa.) was used for both procedures. Ki values were calculated from rate vs. [inhibitor] plots by a nonlinear least squares fit of the data to the equation of Morrison for tight binding competitive inhibition [Morrison, J. F. Biochim. Biophys. Acta., 185, pp. 269-286 (1969)]. The KineTic program (BioKin Ltd) was used for this procedure.
Ki values are express in μM. Category “A” indicates <1 μM inhibition; category “B” indicates 1-100 μM inhibition; category “C” indicates >100 μM.

Chain of HCV NS3 serine protease (P27958 1027-1208): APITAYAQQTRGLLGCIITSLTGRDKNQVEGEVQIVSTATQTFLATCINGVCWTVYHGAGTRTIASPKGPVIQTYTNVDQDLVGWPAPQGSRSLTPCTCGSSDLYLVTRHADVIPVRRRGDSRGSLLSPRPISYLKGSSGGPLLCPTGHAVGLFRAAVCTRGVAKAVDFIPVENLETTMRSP

Row | Ki [µM] | Structure (SMILES)
1 | 1 to 100 | CCC(C=O)NC(=O)c1cc(OCc2ccccc2)ccc1NC(=O)C(NC(=O)c1c(O)ccc2ccccc12)C(C)C (stereo not shown) [Compound 104]
2 | 1 to 100 | CCC(C=O)NC(=O)c1cc(OCc2ccccc2)ccc1N(C)C(=O)C(NC(=O)C(NC(=O)c1cnccn1)C(C)C)C(C)C (stereo not shown) [Compound 103]
3 | 1 to 100 | CCC(C=O)NC(=O)c1cc(OCc2ccccc2)ccc1NC(=O)C(NC(=O)C(NC(=O)c1cnccn1)C(C)C)C(C)C (stereo not shown) [Compound 101]
4 | 1 to 100 | CCC(C=O)NC(=O)c1cc(OCc2ccc(Cl)c(Cl)c2)ccc1NC(=O)C(NC(=O)C(NC(=O)c1cnccn1)C(C)C)C(C)C (stereo not shown) [Compound 107]
